Consider four molecules from US11672795B2, “Compositions and methods for treating pulmonary vascular disease” (UNIVERSITY OF PITTSBURGH-OF THE COMMONWEALTH SYSTEM OF …, priority 2016, dated 2023).

In one experiment the test system is Lox. The experiment is described as follows: Lox activity in lungs of monocrotaline-exposed rats. It is filed as in vivo, rat. The following applies: daily BAPN or daily i.p. verteporfin 25 mg/kg, vs vehicle. How it is done:
Monocrotaline-treated rats: As we previously described (7, 8), male Sprague-Dawley rats (10-14 week old) were injected with 60 mg/kg monocrotaline at time 0; at 0-4 weeks post-exposure, right heart catheterization was performed followed by harvest of lung tissue for RNA extraction or paraffin embedding, as described below (section: Tissue harvest).
To establish definitively whether periarteriolar ECM remodeling and YAP/TAZ modulate vascular cell metabolism in vivo, it was determined whether alteration of YAP/TAZ-dependent mechanotransduction directly controls glutaminolysis and PH development in the monocrotaline rat model. First, using a known pharmacologic inhibitor (β-aminoproprionitrile, BAPN) of Lox, the enzyme responsible for collagen crosslinking and consequent matrix stiffening, it was determined whether inhibition of ECM stiffening could prevent the metabolic changes and downstream PH manifestations observed in monocrotaline-exposed rats (FIG. 4A). […] Such metabolic effects further decreased vascular endothelial and smooth muscle proliferation, as reflected by in situ arteriolar staining (FIG. 4G), and ameliorated hemodynamic and histologic manifestations of PH, as measured by vascular remodeling and muscularization (FIG. 4G), and right ventricular systolic pressure (RVSP) (FIG. 4H).

Experiment [1] deals with PAECs. The experiment is described as follows: Apoptosis of PAECs on soft or stiff matrix (caspase 3/7 activity, cleaved caspase-3 staining). It is filed as cell-based, human. How it is done: A-C) PAECs were plated on soft (1 kPa) or stiff (50 kPa) matrix and exposed to indicated treatments. Apoptosis (A-C) and proliferation (B-C) were quantified 48 h after plating. […] In all panels, mean expression in control groups (soft matrix) was assigned a fold change of 1, to which relevant samples were compared. Data are expressed as mean±SD (*P<0.05; ** P<0.01, ***P<0.001).
(§1) After various indicated treatments, cultured cells were fixed with PBS/PFA 4% for 10 min and permeabilized with PBS/Triton 100×0.1% for 10 min. The cells were then incubated with anti-PCNA (#4912; 1/100; Invitrogen), anti-Ki67 (ab15580; 1/200; Abcam), and/or anti-cleaved caspase-3 (1/200; Cell Signaling) at room temperature for 2 hours. Secondary antibodies coupled with Alexa-594 and/or Alexa-488 (Thermo Scientific) were used at 1/500. Nuclei were counterstained with DAPI (Sigma).
Caspase 3/7 activity was quantified using the Caspase-Glo 3/7 Assay (Promega), according to manufacturer's instructions. Briefly, cells were plated on hydrogel of different stiffness and treated as described. Twenty four hours after plating, cells were cultured in the presence or absence of serum for twenty-four hours. Cells were then lysed and 10 μg of total protein were incubated for 1 h with the caspase substrates, and luminescence was quantified by plate reader (SynergyHTX multi-mode reader, Biotek).

For experiment [2], the system named is PAAFs. The experiment is described as follows: PAAF-dependent ECM remodelling on cytokine stimulation (RT-qPCR, picrosirius red). The format is cell-based. The following applies: for TGF-b-induced ECM related genes expression / fibroblast activation marker (a-SMA) expression: PAAFs, RT-qPCR; for fibroblast activation marker (a-SMA) expression: TGF-b; for PAAFs dependent ECM remodelling: stimulation by pro-inflammatory cytokines (EDN1, IL6 or TGF-b). An excerpt: (§2) A-C) Pharmacological inhibition of GLS1 by either BPTES, C968 or CB839 blunted metabolic activation of PAAFs cultivated on stiff matrix as reflected by decreased glutaminolysis (A), glycolysis (B) and aspartate production (C). D-E) Pharmacological inhibition of GLS1 by either BPTES, C968 or CB839 decreased PAAFs dependent ECM remodelling upon stimulation by pro-inflammatory cytokines (EDN1, IL6 or TGF-b). […] G-H) Fibrilar collagen visualization (G) and quantification (H) by picrosirius red staining confirmed a decreased of ECM remodelling by activated PAAF (TGF-b) in presence of GLS1 inhibitors. I-M) PAAFs were cultivated upon indicated treatments. Cells were removed and pulmonary arterial endothelial cells (PAECs) were cultivated on the matrix synthesized by the PAAF. […] Data are expressed as mean±SEM (*P<0.05, § P<0.01, #P<0.001) of at least 3 independent experiments performed in triplicate. Paired samples were compared by 2-tailed Student's t test, while 1-way ANOVA and post-hoc Tukey's tests were used for group comparisons.
Messenger RNAs were reverse transcribed using the Multiscript RT kit (Life Technologies) to generate cDNA. cDNA was amplified via fluorescently labeled Taqman primer sets using an Applied Biosystems 7900HT Fast Real Time PCR device. To specifically determine the relative expression of the two GLS1 isoforms KGA and GAC, TaqMan gene expression assays Hs01014019_m1 and Hs01022166_m1 were used respectively. Fold-change of RNA species was calculated using the formula (2^−ΔΔCt), normalized to RPLP0 expression.
Picrosirius Red stain was achieved through the use of 5 μm paraffin sections stained with 0.1% Picrosirius Red (Direct Red80, Sigma-Aldrich) and counterstained with Weigert's hematoxylin to reveal fibrillar collagen. The sections were then serially imaged using with an analyzer and polarizer oriented parallel and orthogonal to each other. Microscope conditions (lamp brightness, condenser opening, objective, zoom, exposure time, and gain parameters) were maintained throughout the imaging of all samples. A minimal threshold was set on appropriate control sections for each experiment in which only the light passing through the orthogonally-oriented polarizers representing fibrous structures (i.e., excluding residual light from the black background) was included. The threshold was maintained for all images across all conditions within each experiment. The area of the transferred regions that was covered by the thresholded light was calculated and at least 10 sections/vessel per condition were averaged together (NIH ImageJ software). Targeted LC-MS/MS
On the technique in general: Quantitative PCR measures a nucleic acid by following its amplification.

Experiment [3] has as its system PAAFs. The experiment is described as follows: Metabolic activation of PAAFs cultivated on stiff matrix. The format is cell-based.
Text: as §2

Experiment [4] has as its system PAECs. The experiment is described as follows: Proliferation of PAECs (cell count, BrdU pulse, PCNA staining). The following applies: PAECs, stiff matrix, 48 h after plating. The format is cell-based, human. On the procedure: A-C) PAECs were plated on soft (1 kPa) or stiff (50 kPa) matrix and exposed to indicated treatments. Apoptosis (A-C) and proliferation (B-C) were quantified 48 h after plating. […] Apoptosis (as reflected by cleaved caspase-3 staining, CC-3+) was increased by serum starvation in both soft and stiff conditions but was not affected by GLS1 inhibition. In all panels, mean expression in control groups (soft matrix) was assigned a fold change of 1, to which relevant samples were compared. Data are expressed as mean±SD (*P<0.05; ** P<0.01, ***P<0.001).
as §1
After specified pre-treatment or transfection protocols as indicated, PAECs or PASMCs were plated in triplicate in 6 well plates at 30 000 cells per well. After overnight incubation for cells to adhere, 6 wells were counted to determine initial count at time of treatments (glutamate, aspartate, BPTES, DON or C968). After 2 days, 4 days or 6 days, the contents of the wells were trypsinized and counted, and proliferation rate was calculated.
Exponentially growing cells were plated in the indicated matrix for 48 hours.

On to `N#CCCN` [BAPN, β-aminoproprionitrile], for which the “LOX activity in lungs” value with Lox is reported as “decreased”.
For the molecule `CN(C)c1ccc(C2Nc3ccc4ccccc4c3C3=C2C(=O)CC(C)(C)C3)cc1Br` (stereo not shown) [C968, 5-(3-Bromo-4-(dimethylamino)phenyl)-2,2-dimethyl-2,3,5,6-tetrahydrobenzo[a]phenanthridin-4(1H)-one], the “apoptosis (cleaved caspase-3 staining, CC-3+)” value in the experiment on PAECs [1] (serum starvation, soft and stiff conditions) is given as “not affected”. Also, in the experiment on PAECs [1] (soft (1 kPa) or stiff (50 kPa) matrix, 24 h after serum depletion, vs vehicle control), the “caspase 3/7 activity” value is “No significant changes”. In the experiment with PAAFs [2], the “TGF-b-induced ECM related genes expression” value is recorded as “decreased”, the “fibroblast activation marker (a-SMA) expression” value is “decreased” and the “PAAFs dependent ECM remodelling” value is on record as “decreased”. In the experiment with PAAFs [3], the aspartate production entry is reported as “decreased”, the glutaminolysis result is listed as “decreased”, the glycolysis result is listed as “decreased” and the “metabolic activation of PAAFs” value is on record as “blunted”. Also, the “proliferation in stiff matrix (PCNA+)” value in the experiment on PAECs [4] was “decreased”.
In the case of `O=C(Cc1cccc(OC(F)(F)F)c1)Nc1ccc(CCCCc2nnc(NC(=O)Cc3ccccn3)s2)nn1` [CB839], in the experiment on PAAFs [2], the “TGF-b-induced ECM related genes expression” value is “decreased”, the “fibroblast activation marker (a-SMA) expression” value is recorded as “decreased” and the “PAAFs dependent ECM remodelling” value is listed as “decreased”. Also, in the experiment with PAAFs [3], the aspartate production result is “decreased”, the glutaminolysis result is reported as “decreased”, the glycolysis result is given as “decreased” and the “metabolic activation of PAAFs” value was “blunted”.
`C=Cc1c(C)c2cc3nc(cc4[nH]c(cc5nc(cc1[nH]2)C(C)=C5CCC(=O)O)c(CCC(=O)OC)c4C)[C@@]1(C)C3=CC=C(C(=O)OC)[C@H]1C(=O)OC` [Verteporfin, 3-[(23S,24R)-14-ethenyl-5-(3-methoxy-3-oxopropyl)-22,23-bis(methoxycarbonyl)-4,10,15,24-tetramethyl-25,26,27,28-tetraazahexacyclo[16.6.1.1^3,6.1^8,11.1^13,16.0^19,24]octacosa-1,3,5,7,9,11(27),12,14,16,18(25),19,21-dodecaen-9-yl]propanoic acid]: the “LOX activity in lungs” value in the experiment with Lox is “decreased”.
